Like-named read-outs stand apart in the source and are kept apart here.
Settings: Week 4

## CCCN[C@@H]1CCc2nc(N)sc2C1 [Dexpramipexole, (6R)-2-amino-4,5,6,7-tetrahydro-6-(propylamino)benzothiazole]
<50% AEC reduction at Week 16
  Pre-BD FEF25-75 % change from baseline, Max: −9%
  Pre-BD FEF25-75 % change from baseline, Mean ± SD: −19.8 ± 9.58%
  Pre-BD FEF25-75 % change from baseline, Median: −19.3%
  Pre-BD FEF25-75 % change from baseline, Min: −32%
  Pre-BD FEF25-75 % change from baseline, Q1: −27%
  Pre-BD FEF25-75 % change from baseline, Q3: −13%
  Pre-BD FEF25-75 Observed, Max: 950 mL/s
  Pre-BD FEF25-75 Observed, Mean ± SD: 507.5 ± 333.30 mL/s
  Pre-BD FEF25-75 Observed, Median: 440.0 mL/s
  Pre-BD FEF25-75 Observed, Min: 200 mL/s
  Pre-BD FEF25-75 Observed, Q1: 255 mL/s
  Pre-BD FEF25-75 Observed, Q3: 760 mL/s
  Pre-BD FEF25-75 change from baseline, Max: -30 mL/s
  Pre-BD FEF25-75 change from baseline, Mean ± SD: -167.5 ± 191.03 mL/s
  Pre-BD FEF25-75 change from baseline, Median: -100.0 mL/s
  Pre-BD FEF25-75 change from baseline, Min: -440 mL/s
  Pre-BD FEF25-75 change from baseline, Q1: -300 mL/s
  Pre-BD FEF25-75 change from baseline, Q3: -35 mL/s
  Pre-BD FEV1 % change from baseline, Max: −1%
  Pre-BD FEV1 % change from baseline, Mean ± SD: −16.4 ± 15.81%
  Pre-BD FEV1 % change from baseline, Median: −13.3%
  Pre-BD FEV1 % change from baseline, Min: −37%
  Pre-BD FEV1 % change from baseline, Q1: −28%
  Pre-BD FEV1 % change from baseline, Q3: −4%
  Pre-BD FEV1 Observed, Max: 1680 mL
  Pre-BD FEV1 Observed, Mean ± SD: 1260.0 ± 511.53 mL
  Pre-BD FEV1 Observed, Median: 1420.0 mL
  Pre-BD FEV1 Observed, Min: 520 mL
  Pre-BD FEV1 Observed, Q1: 935 mL
  Pre-BD FEV1 Observed, Q3: 1585 mL
  Pre-BD FEV1 change from baseline, Max: -20 mL
  Pre-BD FEV1 change from baseline, Mean ± SD: -212.5 ± 173.47 mL
  Pre-BD FEV1 change from baseline, Median: -215.0 mL
  Pre-BD FEV1 change from baseline, Min: -400 mL
  Pre-BD FEV1 change from baseline, Q1: -355 mL
  Pre-BD FEV1 change from baseline, Q3: -70 mL
  Pre-BD FVC % change from baseline, Max: 0%
  Pre-BD FVC % change from baseline, Mean ± SD: −9.0 ± 13.97%
  Pre-BD FVC % change from baseline, Median: −2.9%
  Pre-BD FVC % change from baseline, Min: −30%
  Pre-BD FVC % change from baseline, Q1: −17%
  Pre-BD FVC % change from baseline, Q3: −1%
  Pre-BD FVC Observed, Max: 3480 mL
  Pre-BD FVC Observed, Mean ± SD: 2755.0 ± 729.41 mL
  Pre-BD FVC Observed, Median: 2875.0 mL
  Pre-BD FVC Observed, Min: 1790 mL
  Pre-BD FVC Observed, Q1: 2215 mL
  Pre-BD FVC Observed, Q3: 3295 mL
  Pre-BD FVC change from baseline, Max: -10 mL
  Pre-BD FVC change from baseline, Mean ± SD: -240.0 ± 350.90 mL
  Pre-BD FVC change from baseline, Median: -95.0 mL
  Pre-BD FVC change from baseline, Min: -760 mL
  Pre-BD FVC change from baseline, Q1: -450 mL
  Pre-BD FVC change from baseline, Q3: -30 mL
  Pre-BD Peak Flow % change from baseline, Max: 428%
  Pre-BD Peak Flow % change from baseline, Mean ± SD: 90.4 ± 224.72%
  Pre-BD Peak Flow % change from baseline, Median: −20.4%
  Pre-BD Peak Flow % change from baseline, Min: −25%
  Pre-BD Peak Flow % change from baseline, Q1: −24%
  Pre-BD Peak Flow % change from baseline, Q3: 205%
  Pre-BD Peak Flow Observed, Max: 211 L/min
  Pre-BD Peak Flow Observed, Mean ± SD: 167.5 ± 49.57 L/min
  Pre-BD Peak Flow Observed, Median: 180.5 L/min
  Pre-BD Peak Flow Observed, Min: 98 L/min
  Pre-BD Peak Flow Observed, Q1: 133 L/min
  Pre-BD Peak Flow Observed, Q3: 202 L/min
  Pre-BD Peak Flow change from baseline, Max: 171 L/min
  Pre-BD Peak Flow change from baseline, Mean ± SD: 11.0 ± 107.23 L/min
  Pre-BD Peak Flow change from baseline, Median: -35.5 L/min
  Pre-BD Peak Flow change from baseline, Min: -56 L/min
  Pre-BD Peak Flow change from baseline, Q1: -49 L/min
  Pre-BD Peak Flow change from baseline, Q3: 71 L/min
>=50% AEC reduction at Week 16
  Pre-BD FEF25-75 % change from baseline, Max: 41%
  Pre-BD FEF25-75 % change from baseline, Mean ± SD: 11.4 ± 25.76%
  Pre-BD FEF25-75 % change from baseline, Median: −2.2%
  Pre-BD FEF25-75 % change from baseline, Min: −5%
  Pre-BD FEF25-75 % change from baseline, Q1: −5%
  Pre-BD FEF25-75 % change from baseline, Q3: 41%
  Pre-BD FEF25-75 Observed, Max: 1030 mL/s
  Pre-BD FEF25-75 Observed, Mean ± SD: 710.0 ± 446.43 mL/s
  Pre-BD FEF25-75 Observed, Median: 900.0 mL/s
  Pre-BD FEF25-75 Observed, Min: 200 mL/s
  Pre-BD FEF25-75 Observed, Q1: 200 mL/s
  Pre-BD FEF25-75 Observed, Q3: 1030 mL/s
  Pre-BD FEF25-75 change from baseline, Max: 300 mL/s
  Pre-BD FEF25-75 change from baseline, Mean ± SD: 90.0 ± 181.93 mL/s
  Pre-BD FEF25-75 change from baseline, Median: -10.0 mL/s
  Pre-BD FEF25-75 change from baseline, Min: -20 mL/s
  Pre-BD FEF25-75 change from baseline, Q1: -20 mL/s
  Pre-BD FEF25-75 change from baseline, Q3: 300 mL/s
  Pre-BD FEV1 % change from baseline, Max: 62%
  Pre-BD FEV1 % change from baseline, Mean ± SD: 24.8 ± 32.69%
  Pre-BD FEV1 % change from baseline, Median: 9.7%
  Pre-BD FEV1 % change from baseline, Min: 2%
  Pre-BD FEV1 % change from baseline, Q1: 2%
  Pre-BD FEV1 % change from baseline, Q3: 62%
  Pre-BD FEV1 Observed, Max: 2110 mL
  Pre-BD FEV1 Observed, Mean ± SD: 1540.0 ± 678.16 mL
  Pre-BD FEV1 Observed, Median: 1720.0 mL
  Pre-BD FEV1 Observed, Min: 790 mL
  Pre-BD FEV1 Observed, Q1: 790 mL
  Pre-BD FEV1 Observed, Q3: 2110 mL
  Pre-BD FEV1 change from baseline, Max: 810 mL
  Pre-BD FEV1 change from baseline, Mean ± SD: 306.7 ± 436.16 mL
  Pre-BD FEV1 change from baseline, Median: 70.0 mL
  Pre-BD FEV1 change from baseline, Min: 40 mL
  Pre-BD FEV1 change from baseline, Q1: 40 mL
  Pre-BD FEV1 change from baseline, Q3: 810 mL
  Pre-BD FVC % change from baseline, Max: 32%
  Pre-BD FVC % change from baseline, Mean ± SD: 15.7 ± 14.81%
  Pre-BD FVC % change from baseline, Median: 11.4%
  Pre-BD FVC % change from baseline, Min: 3%
  Pre-BD FVC % change from baseline, Q1: 3%
  Pre-BD FVC % change from baseline, Q3: 32%
  Pre-BD FVC Observed, Max: 3330 mL
  Pre-BD FVC Observed, Mean ± SD: 2790.0 ± 497.59 mL
  Pre-BD FVC Observed, Median: 2690.0 mL
  Pre-BD FVC Observed, Min: 2350 mL
  Pre-BD FVC Observed, Q1: 2350 mL
  Pre-BD FVC Observed, Q3: 3330 mL
  Pre-BD FVC change from baseline, Max: 810 mL
  Pre-BD FVC change from baseline, Mean ± SD: 380.0 ± 379.87 mL
  Pre-BD FVC change from baseline, Median: 240.0 mL
  Pre-BD FVC change from baseline, Min: 90 mL
  Pre-BD FVC change from baseline, Q1: 90 mL
  Pre-BD FVC change from baseline, Q3: 810 mL
  Pre-BD Peak Flow % change from baseline, Max: 143%
  Pre-BD Peak Flow % change from baseline, Mean ± SD: 63.4 ± 69.42%
  Pre-BD Peak Flow % change from baseline, Median: 28.2%
  Pre-BD Peak Flow % change from baseline, Min: 18%
  Pre-BD Peak Flow % change from baseline, Q1: 18%
  Pre-BD Peak Flow % change from baseline, Q3: 143%
  Pre-BD Peak Flow Observed, Max: 382 L/min
  Pre-BD Peak Flow Observed, Mean ± SD: 260.7 ± 108.49 L/min
  Pre-BD Peak Flow Observed, Median: 227.0 L/min
  Pre-BD Peak Flow Observed, Min: 173 L/min
  Pre-BD Peak Flow Observed, Q1: 173 L/min
  Pre-BD Peak Flow Observed, Q3: 382 L/min
  Pre-BD Peak Flow change from baseline, Max: 225 L/min
  Pre-BD Peak Flow change from baseline, Mean ± SD: 100.7 ± 108.29 L/min
  Pre-BD Peak Flow change from baseline, Median: 50.0 L/min
  Pre-BD Peak Flow change from baseline, Min: 27 L/min
  Pre-BD Peak Flow change from baseline, Q1: 27 L/min
  Pre-BD Peak Flow change from baseline, Q3: 225 L/min

— US20250352520A1, “USE OF DEXPRAMIPEXOLE FOR THE TREATMENT OF EOSINOPHILIC COPD” (Areteia Therapeutics, Inc., priority 2024, published 2025)
